Literature values as cited in patent US12636282B1 (priority 2020, dated 2026).
Read-outs that look alike come from different tables or passages of the source.

Legend:
[1] = test system: lethal influenza infections; conditions: mice, lethal influenza infection
COVID-19 = conditions: early uncontrolled study
influenza = conditions: NAC 600 mg twice a day for 6 months; 79% with placebo
Coxackievirus B = conditions: in vivo; through suppressing viral replication and inflammatory responses

CCOC(=O)C1=C[C@@H](OC(CC)CC)[C@H](NC(C)=O)[C@@H](N)C1 [oseltamivir]
Survival [1]: 60%

CCN(CCO)CCCC(C)Nc1ccnc2cc(Cl)ccc12 (stereo not drawn) [HCQ, hydroxychloroquine]
Retinal toxicity, share of patients (after 6 years of HCQ use): 1.8% | Retinal toxicity, share of patients (after 11 years of HCQ use): 3.3% | Retinal toxicity, share of patients (after 16 years of HCQ use): 11.5%

Tocilizumab: interleukin 6 (IL-6) receptor antibody
fever (COVID-19): rapidly reduction in fever | oxygenation (COVID-19): improvement in oxygenation

CC(=O)N[C@@H](CS)C(=O)O [NAC, N-acetyl cysteine]
virus-infected subjects developing flu symptoms (influenza): 25% | Survival [1]: 20% | Coxackievirus B-induced myocarditis (Coxackievirus B): effectively alleviates
